According to PMC11178805, “Ligand-based design of [^18F]OXD-2314 for PET imaging in non-Alzheimer’s disease tauopathies” (Nature Communications, 2024):
“And” between values parts separate entries of the source, which are not always exact repeats. Equal entries are not always repeated.

How the values were obtained:
[1] = logD7.4 by shake-flask method; assay type: physicochemical; conditions: pH 7.4
Text: [^18F]OXD-2314 was radiolabeled by an analogous method previously reported for [^18F]OXD-2115 with minor modifications (Fig. 2)[30]. [^18F]OXD-2314 was reliably produced with high radiochemical purity (RCP) ranging from 95-98%, molar activity (Am) of […] (n = 4), and radiochemical yield (RCY) of 8.7 ± 3.7% (not decay-corrected, ndc) in the laboratories in Toronto and was replicated with Am of 349 ± 144 GBq/μmol (n = 4) and RCY of 2.3 ± 1.1% (ndc) in the laboratories in Pittsburgh. The logD7.4 value of [^18F]OXD-2314 was measured as 3.11 ± 0.04 using the shake-flask method.

[2] = Dynamic brain PET-CT with [^18F]OXD-2314 in rats; assay type: in vivo
Procedure: Eight rats were used in preclinical PET scans with [^18F]OXD-2314: two for dynamic brain imaging, and six for whole-body biodistribution of radioactivity and dose estimation. Another five rats were used for radiometabolite analysis in brain homogenates and blood plasma. Dynamic PET-CT imaging in healthy wild-type (wt) rats were performed following intravenous administration of [^18F]OXD-2314 (17.9 and 23.8 MBq, n = 2, one female and one male). Radioactivity reached an initial peak of 2.3 standardized uptake value (SUV) within two minutes in whole brain, followed by a steady washout of radioactivity in the brain to below 0.3 SUV at the end of the 120 min acquisition time (Fig. 4). Distribution of radioactivity was homogenous among brain regions, but with the female rat having slower clearance of radioactivity from the brain and thus higher overall brain radioactivity than the male rat.
A total of 8 healthy adult rats (Sprague-Dawley, 384 ± 56 g; 4/4 M/F) underwent PET imaging following bolus injection of [^18F]OXD-2314 (20.5 ± 4.1 MBq), with two animals (M/F) scanned for 120 min with the head in the centre of PET field-of-view (FOV) whereas six animals (3/3 M/F) scanned for 180 min at three bed positions (head-to-bottom) with 15 frames (2×15 s, 2×30 s, 2×60 s, 1×120 s, 1×180 s, 2×240 s, 2×300 s, and 3×600 s) to cover the whole body. PET images were acquired using a nanoScan™ PET/CT scanner (Mediso, Budapest, Hungary) with rats anesthetized under isoflurane in O2 (1.5–2%, 1 L/min) throughout the imaging session and monitored closely for body temperature and respiration rate. […] Normalized cumulated activities of each organ were calculated using trapezoidal integration of the area under the TACs plus extrapolation of the TAC to infinity with natural decay of the radiotracer. […] SUV were calculated by normalizing regional radioactivity for injected radioactivity and body weight.

[3] = Radiometabolite analysis in rat plasma and brain homogenates; assay type: in vivo, rat (Sprague-Dawley); conditions: for parent fraction of radioactivity in brain homogenates: rats
Procedure: Radiometabolite analysis was performed ex vivo in plasma and brain homogenates from rats (n = 5, 3 female and 2 male) at 30 and 60 min after radiotracer injection (Figs. S11–S16). […] The parent fraction in plasma was 6% at 30 min and 5% at 60 min in the two male rats, respectively, and 32% at 30 min (n = 1) and 18% and 17% at 60 min (n = 2) in the female rats. Different rates of metabolism between male and female rats may have contributed to the differences in kinetics observed in the brain PET scans. No lipophilic radiometabolites were detected in plasma or brain. Parent [^18F]OXD-2314 accounted for 82 ± 7% (n = 2) and 80 ± 5% (n = 3) of the radioactivity in rat brain homogenates by 30 and 60 min post-injection of the radiotracer, respectively. The rats were not perfused with saline immediately prior to sacrifice, so that radiometabolites in blood were trapped in the brain and likely accounted for a portion of the polar radiometabolites found in brain, as cerebral blood volume in rats is approximately 4–5% of total brain volume.
Five adult Sprague-Dawley rats (3 F/2 M, 378 ± 51 g) were used in [^18F]OXD-2314 radiometabolite analysis. Following injection of 46.7 ± 3.3 MBq of the radiotracer through a tail-vein catheter, rats were sacrificed by decapitation 30 min (n = 2) and 60 min (n = 3) post-injection. Trunk blood was collected and centrifuged for 5 min at 2500 × g, and the plasma was collected. Brains were quickly extracted and homogenized with a BeadBug™ (Benchmark Scientific; Sayreville, NJ, USA) in 3.2 mL acetonitrile together with 1 μg of unlabeled parent compound, then 1.6 mL deionized H2O was added and mixed. The homogenate was centrifuged at 12,000 × g for 5 min, and the supernatant was collected. Parent radiotracer was separated from metabolites in plasma and brain extract by column-switching HPLC in a mobile phase of 40/60 CH3CN/100 mM NH4HCO2 (v/v) and analyzed with PowerChrom 2.6.15 (eDAQ).

CO[C@H]1CCCN(c2ccc(-c3cc4cc(O)ccc4[nH]3)c([18F])n2)C1 [[^18F]OXD-2314]
logD [1]: 3.11 ± 0.04
ratio initial maximum to late minimum brain radioactivity ([2]; rats): ~ 8
whole brain radioactivity at end of acquisition ([2]; rats, end of the 120 min acquisition): below 0.3 SUV
initial peak whole brain uptake (SUV) ([2]; wild-type rats, i.v., within two minutes, n = 2): 2.3 SUV and > 2 SUV
% Parent Brain ([3]; female rat, 30 min): 77.11%
parent fraction in plasma ([3]; female rat, 30 min post-injection): 32% and 32.43%
% Parent Brain ([3]; female rats, 60 min): 81.01% and 83.78%
parent fraction in plasma ([3]; female rats, 60 min post-injection): 18% and 17% and 17.66% and 17.32%
% Parent Brain ([3]; male rat, 30 min): 87.09%
parent fraction in plasma ([3]; male rat, 30 min post-injection): 6% and 5.79%
% Parent Brain ([3]; male rat, 60 min): 74.16%
parent fraction in plasma ([3]; male rat, 60 min post-injection): 5%
parent fraction of radioactivity in brain homogenates ([3]; 30 min post-injection, n = 2): 82 ± 7%
parent fraction of radioactivity in brain homogenates ([3]; 60 min post-injection, n = 3): 80 ± 5%
